The values that follow come from PMC9413514, “Accessing Lipophilicity and Biomimetic Chromatography Profile of Biologically Active Ingredients of Botanicals Used in the Treatment of Inflammatory Bowel Disease” (Pharmaceuticals, 2022).

Series [1] can be described thus: C18-HPLC assay (hydrophobicity). Format: physicochemical. The settings on record: for logk0 (HPLC hydrophobicity index, intercept of linear equation): Zorbax SB C18, PBS pH 7.4/methanol, extrapolated to zero organic modifier. As to the method: The principles of hydrophobicity determination by HPLC are characterized by the logarithm of retention factor (k), defined as logk = log (tR−t0)/t0, where tR is retention time of analyte and t0 is the dead time. […] The percentage of methanol in the mobile phase was optimized so that the analytes had retention time between dead time and a maximum of 20 min keeping the analysis time as short as possible, and the peak shape acceptable (peak asymmetry factor were between 0.8 and 1.2). […] The HPLC hydrophobicity index, logk0, was determined by extrapolation of the organic modifier in the mobile phase to its zero concentration.
(§1) Stock solutions of analytes and calibration standards were prepared by dissolving 10 mg of each solute in 10 mL of methanol and kept at 4 °C. Working solutions were freshly prepared at the beginning of each day by dilution of the stock solutions to 100 μg/mL with methanol for TLC measurements or mobile phase for HPLC measurements. Before use, the samples were sonicated (Elmasonic XtraTT, Elma Schmidbauer) for 10 min at 25 °C and all working solutions were filtered through 0.2 µm polyethersulfone filters (Obrnuta faza). To protect analytes from photodegradation, the amber glass HPLC vials were used.
(§2) C18-HPLC assay was carried out at Agilent HPLC 1100 and Zorbax SB C18 chromatographic column (length 250 mm.6 mm, particle size 5 µm) by Agilent Technologies, while IAM-HPLC assay was conducted using IAM P.C.DD2 chromatographic column (length 50 mm, i.d. 3.0 mm, particle size […]) by Regis Technologies (Morton Grove, IL, USA). Retention data were collected at 25.0 ± 0.1 °C using isocratic method working with mobile phases, mixing the respective amounts of PBS (10 mM, pH 7.4) and methanol from 35% to 80% of organic solvent in 5% increment. Each mobile phase was shaken vigorously and filtrated through membrane filter, no. 66, diameter 47 mm, pore size 0.45 µm by Supelco and degassed by sonication 5 min before use. The injection volume was set at 10 µL, and the measurements were carried out at flow rate 1.0 mL/min. Natrium nitrate solution (0.1 mg/mL in mobile phase) was used as the marker of dead-time. The absorbance of the analytes during a chromatographic run was collected in the spectral range of 200–400 nm, and the detection wavelength for each analyte was the one providing the maximum peak height.

Series [2] is described as follows: IAM-HPLC assay (lipophilicity, affinity to phospholipids). It is filed as physicochemical. The settings on record: for logk0 IAM (HPLC lipophilicity index, intercept of linear equation): IAM P.C.DD2 column, PBS pH 7.4/methanol, extrapolated to zero organic modifier. The procedure: IAM columns provide potential to simulate membrane permeability since the amphiphilic character of phospholipid functional groups plays an important role in IAM retention especially when charged molecules are analysed.
as §1, §2

As for `C=C1CC[C@@H]2[C@](C)(CO)[C@H](O)CC[C@@]2(C)[C@@H]1C/C=C1/C(=O)OC[C@H]1O` [Andrographolide, andrographolide], in series [1], the “logk0 (HPLC hydrophobicity index, intercept of linear equation)” value was “y = −0.0271 x + 1.9065”. Besides, the “logk0 IAM (HPLC lipophilicity index, intercept of linear equation)” value in series [2] was “y = −0.0464 x + 2.2763”.

In the case of `O=C(C=Cc1ccc(O)cc1)CC(=O)C=Cc1ccc(O)cc1` [Bisdemetoxycurcumin, bisdemetoxycurcumin], the “logk0 (HPLC hydrophobicity index, intercept of linear equation)” value in series [1] is reported as “y = −0.0447 x + 3.4174”. Besides, the “logk0 IAM (HPLC lipophilicity index, intercept of linear equation)” value in series [2] is “y = −0.0568 x + 4.6386”.

`COc1cc(/C=C/C(=O)CC(=O)/C=C/c2ccc(O)cc2)ccc1O` [Demetoxycurcumin, demetoxycurcumin]: in series [1], the “logk0 (HPLC hydrophobicity index, intercept of linear equation)” value was “y = −0.0448 x + 3.4349”. The “logk0 IAM (HPLC lipophilicity index, intercept of linear equation)” value in series [2] is “y = −0.0555 x + 4.4229”.

For the compound `C=C1CC[C@@H]2[C@](C)(CO[C@@H]3O[C@H](CO)[C@@H](O)[C@H](O)[C@H]3O)CCC[C@@]2(C)[C@@H]1CCC1=CCOC1=O` [Neoandrographolide, neoandrographolide], in series [1], the “logk0 (HPLC hydrophobicity index, intercept of linear equation)” value was “y = −0.0359 x + 2.8595”. For the same compound, in series [1] (compared to andrographolide), the “difference in logk0 values versus andrographolide” value is on record as 0.95 units. For the same compound, the “logk0 IAM (HPLC lipophilicity index, intercept of linear equation)” value in series [2] is given as “y = −0.0620 x + 3.4572”. In addition, the “difference in logk0 IAM values versus andrographolide” value in series [2] (compared to andrographolide) was 1.18 units.

`O=C(/C=C/C=C/c1ccc2c(c1)OCO2)N1CCCCC1` [Piperine, piperine]: the “logk0 (HPLC hydrophobicity index, intercept of linear equation)” value in series [1] is given as “y = −0.0394 x + 3.4218”. Moreover, the “logk0 IAM (HPLC lipophilicity index, intercept of linear equation)” value in series [2] is “y = −0.0512 x + 3.2026”.
